{"source": "paper PMC12067741", "about": "“Inhibition of SOD1 trimerization is a novel drug target for ALS disease” (Translational Neurodegeneration, 2025)", "key": {"Plasma stability": {"assay": "Plasma stability", "type": "in vitro ADME", "conditions": "SD rat plasma, after 120 min of incubation"}, "[1]": {"tested_on": "MT-SOD1 inclusions in SK-N-SH cells", "assay": "SOD1 inclusions by immunofluorescence in SK-N-SH cells", "type": "cell-based", "conditions": "SK-N-SH cells expressing MT-SOD1, 24 h", "method": "Cells on coverslips were washed with PBS, fixed with 4% PFA for 30 min at room temperature and then permeabilized in 0.1% Triton X-100/PBS for 10 min. After incubation in blocking solution (goat serum diluted 1:200 in PBS) for 1 h, cells were incubated with primary antibodies in blocking buffer for overnight at 4 °C. Finally, the cells were incubated with FITC- or Rhodamine-conjugated secondary antibody at 4 °C for 4 h. The nucleus was stained with 4, 6-diamidino-2-phenylindole and the endoplasmic reticulum (ER) was stained using the ER-Tracker Red dye for 10 min. Cells were washed three times with PBS, then the coverslips were mounted with the mounting solution (H-5501; Vector Laboratories, Burlingame, CA) and observed by fluorescence microscopy using Zeiss Apotome 2 (Software; Axiovision 4.8, Baden-Württemberg, Germany) and CELENA X (Logos Biosystems, Annandale, VA).\nCells with SOD1 aggregation were counted in the fluorescent images. Depending on the intensity of SOD1, cells with SOD1 aggregates were counted in randomly selected fields and quantified as a percentage to the total cells counted. In addition, to calculate the colocalization of the three colors of SOD1, we counted the cells where the three colored images overlapped at a point of high intensity. […]\nFig. S1. […] After incubation, cells were fixed with 4 % PFA and observed under the fluorescence microscope. […]"}, "[2]": {"assay": "Pharmacokinetics in mice (compound screening, IV/PO)", "type": "in vivo, mouse", "conditions": "mouse (compound screening), PO3, 20 mg/kg", "method": "Fig. S1. Optimized inhibitor reduces SOD1 aggregation. a, Mutant SOD1s induced WT-SOD1 aggregation. Testing the selected chemicals to check the inhibitory effect on SOD1 aggregation .HEK293 cells were transfected with MT-SOD1 vectors (A4V, G 93 A) and treated with selected chemicals (5 mM). After incubation, transfected cells were harvested with TNNI buffer and fixed with 0.04% glutaraldehyde (Glu) for 30min. Samples were separated using SDS-PAGE. b-c, PRG-A-04 inhibited SOD1 inclusions in SK-N-SH cells. (b) Cells expressing MT-SOD1 vectors were treated with PRG-A-04 ([…]) for 24 hr. After incubation, cells were fixed with 4 % PFA and observed under the fluorescence microscope. (c) Cells with SOD1 inclusions (white arrows; strong intensity of SOD1) were counted by photomicrographs and the percentages were shown with standard deviation (SD). For cell counting, ten fluorescence images were randomly selected. Counting of cells were performed by three independent observers, who were blinded to transfection or chemical treatment group; two-tailed Student’s t-test. NS; Not significant, ****P < 0.001, d, PRG-A- […]\ndegradationin blood as well as gastro-intestinal tract.IV; intravenous injected group, PO; Per Os administrated group e, […]\nshow cytotoxicity. To know the toxic effect of PRG-A-04 , human normal fibroblast (f) and neuron cells (g) were incubated with PRG -A-04 for 48 hr dose dependently and measured the viability through MTT assay .“Con” means Dimethyl sulfoxide (DMSO) -treated control . The data are normalized to DMSO-treated cells. n=3 independent experiments; two-tailed Student’s t-test.NS; Not significant, *P < 0.05, **P < 0.01, ***P < 0.005."}, "CYP 2C9": {"biological_target": "CYP 2C9 (Homo sapiens, UniProt P11712)", "sequence (P11712 whole entry)": "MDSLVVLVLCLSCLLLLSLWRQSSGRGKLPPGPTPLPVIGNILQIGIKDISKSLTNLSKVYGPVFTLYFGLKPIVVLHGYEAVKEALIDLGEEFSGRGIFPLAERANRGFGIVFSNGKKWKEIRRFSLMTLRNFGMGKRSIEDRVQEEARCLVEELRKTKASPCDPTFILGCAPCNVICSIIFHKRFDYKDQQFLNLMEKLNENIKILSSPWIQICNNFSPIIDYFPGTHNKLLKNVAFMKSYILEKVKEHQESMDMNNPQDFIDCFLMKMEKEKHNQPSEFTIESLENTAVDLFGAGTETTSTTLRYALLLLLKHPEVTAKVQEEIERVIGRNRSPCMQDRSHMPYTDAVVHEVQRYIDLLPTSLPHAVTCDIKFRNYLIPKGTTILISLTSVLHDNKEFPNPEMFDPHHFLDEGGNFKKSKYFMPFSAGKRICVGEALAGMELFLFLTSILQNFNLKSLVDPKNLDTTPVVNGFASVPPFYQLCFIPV", "source_text": "(§1) Fig. S8. Preclinical data of PRG-A-04 a Plasma protein binding b CYP inhibition(direct) […]\n(§2) d Mouse Brain Tissue penetration\n(§3) For the convenience of calculation, […]"}, "CYP 2D6": {"biological_target": "CYP 2D6 (Homo sapiens, UniProt P10635)", "sequence (P10635 whole entry)": "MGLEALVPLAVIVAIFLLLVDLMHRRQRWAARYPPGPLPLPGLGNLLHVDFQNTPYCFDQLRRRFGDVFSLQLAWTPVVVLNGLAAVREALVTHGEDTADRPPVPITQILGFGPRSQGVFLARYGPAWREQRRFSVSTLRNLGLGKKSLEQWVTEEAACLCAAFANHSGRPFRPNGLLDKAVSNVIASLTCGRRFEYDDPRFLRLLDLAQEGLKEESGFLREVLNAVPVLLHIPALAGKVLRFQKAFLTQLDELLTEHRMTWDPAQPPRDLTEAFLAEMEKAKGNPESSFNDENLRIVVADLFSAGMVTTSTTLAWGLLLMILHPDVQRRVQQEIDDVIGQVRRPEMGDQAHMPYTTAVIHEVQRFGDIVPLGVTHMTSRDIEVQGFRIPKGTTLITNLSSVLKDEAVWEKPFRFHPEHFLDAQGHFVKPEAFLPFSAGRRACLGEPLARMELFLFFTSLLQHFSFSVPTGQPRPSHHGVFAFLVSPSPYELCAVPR", "source_text": "as §1, §2, §3"}, "CYP2C19": {"biological_target": "CYP2C19 (Homo sapiens, UniProt P33261)", "sequence (P33261 whole entry)": "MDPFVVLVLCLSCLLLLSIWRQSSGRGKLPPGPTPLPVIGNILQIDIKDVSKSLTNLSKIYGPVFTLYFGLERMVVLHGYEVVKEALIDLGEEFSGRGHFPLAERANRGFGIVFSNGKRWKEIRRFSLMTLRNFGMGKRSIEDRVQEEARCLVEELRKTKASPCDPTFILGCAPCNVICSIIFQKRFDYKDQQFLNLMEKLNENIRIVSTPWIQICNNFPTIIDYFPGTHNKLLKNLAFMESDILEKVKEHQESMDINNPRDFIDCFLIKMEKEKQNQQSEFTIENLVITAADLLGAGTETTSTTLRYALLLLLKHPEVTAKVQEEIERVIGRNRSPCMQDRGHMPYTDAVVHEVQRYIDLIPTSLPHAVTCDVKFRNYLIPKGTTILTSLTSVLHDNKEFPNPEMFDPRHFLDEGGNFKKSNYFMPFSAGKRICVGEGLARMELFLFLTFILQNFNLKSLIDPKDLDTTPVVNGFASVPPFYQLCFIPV", "source_text": "as §1, §2, §3"}, "CYP 2C8": {"biological_target": "CYP 2C8 (Homo sapiens, UniProt P10632)", "sequence (P10632 whole entry)": "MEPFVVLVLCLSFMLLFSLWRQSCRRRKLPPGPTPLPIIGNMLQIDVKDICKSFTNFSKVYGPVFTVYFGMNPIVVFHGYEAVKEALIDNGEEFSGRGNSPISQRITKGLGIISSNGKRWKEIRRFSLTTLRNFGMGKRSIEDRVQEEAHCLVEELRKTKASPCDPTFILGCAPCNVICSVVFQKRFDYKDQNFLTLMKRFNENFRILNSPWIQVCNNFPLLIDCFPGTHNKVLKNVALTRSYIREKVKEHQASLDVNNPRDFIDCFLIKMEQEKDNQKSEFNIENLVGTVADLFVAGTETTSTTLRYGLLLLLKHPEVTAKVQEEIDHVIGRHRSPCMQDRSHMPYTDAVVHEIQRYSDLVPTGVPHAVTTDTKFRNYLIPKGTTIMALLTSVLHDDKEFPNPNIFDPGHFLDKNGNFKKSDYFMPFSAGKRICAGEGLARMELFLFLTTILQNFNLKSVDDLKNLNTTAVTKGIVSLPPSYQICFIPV", "source_text": "as §1, §2, §3"}, "plasma proteins": {"tested_on": "plasma proteins", "source_text": "as §1, §2, §3"}, "CYP 2B6": {"biological_target": "CYP 2B6 (Homo sapiens, UniProt P20813)", "sequence (P20813 whole entry)": "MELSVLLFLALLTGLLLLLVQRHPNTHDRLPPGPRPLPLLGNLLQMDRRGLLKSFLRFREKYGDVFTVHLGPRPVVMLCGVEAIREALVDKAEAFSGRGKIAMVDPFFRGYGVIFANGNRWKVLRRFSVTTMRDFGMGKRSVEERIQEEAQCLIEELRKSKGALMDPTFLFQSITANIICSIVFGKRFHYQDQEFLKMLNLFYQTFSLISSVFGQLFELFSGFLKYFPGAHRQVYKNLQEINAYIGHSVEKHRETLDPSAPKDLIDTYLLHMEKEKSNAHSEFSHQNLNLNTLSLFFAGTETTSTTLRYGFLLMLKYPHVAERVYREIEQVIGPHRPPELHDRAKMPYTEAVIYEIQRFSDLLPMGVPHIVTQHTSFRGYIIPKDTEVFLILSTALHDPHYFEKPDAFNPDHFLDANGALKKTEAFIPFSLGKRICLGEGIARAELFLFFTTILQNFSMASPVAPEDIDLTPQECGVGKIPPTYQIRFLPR", "source_text": "as §1, §2, §3"}, "TDP-43 and WT-SOD1": {"tested_on": "TDP-43 and WT-SOD1", "assay": "WT-SOD1 and TDP-43 aggregation induced by ectopic TDP-43 expression in SK-N-SH cells", "type": "cell-based", "conditions": "TDP-43 overexpression", "source_text": "Cells with SOD1 inclusions (white arrows; strong intensity of SOD1) were counted and the percentages are shown with standard deviation. n = 3 independent experiments; two-tailed Student’s t-test. Scale bar, 10 μm. d, e PRG-A-04 reduced misfolding of MT-SOD1. d The affinity of misfolding-specific antibody to MT-SOD1 was inhibited by PRG-A-04. e Quantification of band intensity with Image J software. Mean ± SD. A.U., arbitrary units. *P < 0.05, **P < 0.01. f PRG-A-04 reduced the MT-SOD1 recombinant protein-induced increase of self-oligomerization in vitro. g WT-SOD1 and TDP-43 oligomerization induced by ectopic TDP-43 expression was abolished by PRG-A-04 treatment. h–k WT-SOD1 aggregation induced by ectopic TDP-43 expression was reduced by PRG-A-04 treatment. […] Scale bars, 10 μm. i PRG-A-04 reduced WT-SOD1 inclusions triggered by TDP-43 overexpression. Inclusion-positive cells (white arrows in h, strong intensity of SOD1) were counted and the percentages are shown as mean ± SD. j PRG-A-04 reduced the ratio of cells with cytoplasmic TDP-43 inclusions to tdtomato-positive ones. Cells with cytoplasmic TDP-43 (white arrows) among tdtomato positive ones were counted in randomly selected fields by photomicrographs and the cytosol/nucleus ratio was shown with ± SD. k PRG-A-04 reduced cytoplasmic TDP-43 inclusion. Mean ± SD. *P < 0.05, **P < 0.01, ***P < 0.005 […]"}}, "note": "Where two headings read alike, the source gives them in different places.", "data": [{"compound": "COc1cc(C=CCOC2Cc3cc4ccc(=O)oc4cc3OC2(C)C)ccc1[N+](=O)[O-]", "note": "(stereo not shown) [PRG-A-04]", "values": [{"measurement": "stability in plasma", "setting": "Plasma stability", "value": "stable"}, {"measurement": "effect on SOD1 inclusions", "setting": "[1]", "value": "suppressed SOD1 inclusions"}, {"measurement": "bioavailability", "setting": "[2]", "value": 63.78, "unit": "%"}, {"measurement": "IC50", "setting": "CYP 2C9", "value": "> 10", "unit": "µM"}, {"measurement": "IC50", "setting": "CYP 2D6", "value": "> 10", "unit": "µM"}, {"measurement": "IC50", "setting": "CYP2C19", "value": 4.75, "unit": "µM"}, {"measurement": "IC50", "setting": "CYP 2C8", "value": "> 10", "unit": "µM"}, {"measurement": "% Bound", "setting": "plasma proteins; Dog plasma, concentration 0.2 uM", "value": "> 99.93", "unit": "%"}, {"measurement": "% Bound", "setting": "plasma proteins; Dog plasma, concentration 2 uM", "value": 99.95, "unit": "%"}, {"measurement": "% Bound", "setting": "plasma proteins; Dog plasma, concentration 10 uM", "value": 99.92, "unit": "%"}, {"measurement": "% Bound", "setting": "plasma proteins; Human plasma, concentration 0.2 uM", "value": "> 99.92", "unit": "%"}, {"measurement": "% Bound", "setting": "plasma proteins; Human plasma, concentration 2 uM", "value": 99.97, "unit": "%"}, {"measurement": "% Bound", "setting": "plasma proteins; Human plasma, concentration 10 uM", "value": 99.97, "unit": "%"}, {"measurement": "% Bound", "setting": "plasma proteins; Monkey plasma, concentration 0.2 uM", "value": "> 99.94", "unit": "%"}, {"measurement": "% Bound", "setting": "plasma proteins; Monkey plasma, concentration 2 uM", "value": 99.93, "unit": "%"}, {"measurement": "% Bound", "setting": "plasma proteins; Monkey plasma, concentration 10 uM", "value": 99.89, "unit": "%"}, {"measurement": "% Bound", "setting": "plasma proteins; Mouse plasma, concentration 0.2 uM", "value": 99.91, "unit": "%"}, {"measurement": "% Bound", "setting": "plasma proteins; Mouse plasma, concentration 2 uM", "value": 99.92, "unit": "%"}, {"measurement": "% Bound", "setting": "plasma proteins; Mouse plasma, concentration 10 uM", "value": 99.87, "unit": "%"}, {"measurement": "% Bound", "setting": "plasma proteins; Rat plasma, concentration 0.2 uM", "value": 99.9, "unit": "%"}, {"measurement": "% Bound", "setting": "plasma proteins; Rat plasma, concentration 2 uM", "value": 99.91, "unit": "%"}, {"measurement": "% Bound", "setting": "plasma proteins; Rat plasma, concentration 10 uM", "value": 99.86, "unit": "%"}, {"measurement": "IC50", "setting": "CYP 2B6", "value": "> 10", "unit": "µM"}, {"measurement": "cytosolic mislocalization of TDP-43", "setting": "TDP-43 and WT-SOD1", "value": "significantly reduced"}, {"measurement": "effect on TDP-43 and SOD1 aggregation", "setting": "TDP-43 and WT-SOD1", "value": "inhibitory effect on TDP-43 and SOD1 aggregation"}]}]}
